# Laboratory results: patent US10220040B2, “Compounds, compositions and methods useful for cholesterol mobilization” (Cerenis Therapeutics Holding SA, priority 2010, dated 2019)
# Key:
# [1] = test system: P2Y13 knock-down Hepa 1-6 cells; assay: HDL uptake on P2Y13 knock-down Hepa 1-6 cells; assay type: cell-based, mouse; conditions: in presence of Compound IIa (1 μM); doxycycline 72 hours; p<0.005
# Protocol: FIG. 15: HDL uptake on P2Y13 knock-down Hepa 1-6 cells. Hepa 1-6 cells transduced with lentiviral particles coding the P2Y13 shRNA were induced by the addition of doxycycline for 72 hours. Cells were incubated for 10 min at 37° C. with 75 μg/ml ^3H cholesterol ether HDL and Compound IIa (1 μM). Data are expressed as the percentage of internalized radioactivity with respect to the control value (set as […]).*p<0.05, **p<0.005.
# In order to relate the specific P2Y13 HDL uptake to the illustrative compounds of the invention, a knock-down P2Y13 in a mouse liver cell line (Hepa 1-6) was investigated. Lentiviral particles coding for the mouse P2Y13 shRNA and inducible by the addition of doxycycline onto the cells (pTRIPZ vector from Open Biosystem) were used. In presence of doxycycline, a decrease of the P2Y13 mRNA (FIG. 11) was observed. The uptake of HDL on this cell line was measured in the presence and the absence of Compound IIa and doxycycline (FIG. 12). A significant decrease of HDL uptake (8.5%) was observed when the cells were treated with doxycycline (group vehicle—p<0.05).
# Transduced Hepa 1-6 cells were plated at 300,000 cells/well in 6×-well plates. […]
# The lentiviral production in HEK 293T and authorization for lentiviral production was obtained by Vectalys. […] 24 hours after transduction, the number of cells was counted. […]
# C57Bl/6J mice = assay: In vivo liver uptake of [3H]-labelled mouse HDL and LDL; conditions: intravenous 10 nmole/kg
# Protocol: FIG. 16A-J: Increase of bile secretion following activation of P2Y13r pathway in mice. C57Bl/6J mice (n=10) were fasted for 2 h and then intravenously injected with Cangrelor® or Compound IIa (10 nmoles/kg). Four hours later the gallbladders were removed and analyzed for: Bile acids content (FIG. 16A); Bile cholesterol content (FIG. 16B). C57Bl/6J mice (n=10) were fasted for 2 h followed by single oral dose of P2Y13r agonist Compound IIa at 3, 30 or 300 μg/kg. Six hours later bile acids contents (FIG. 16C); bile cholesterol content (FIG. 16D), and bile acid content of liver (FIG. 16E) were evaluated using HPLC and enzymatic kits for gallbladers. Plasma samples were collected at time 0 and after 6 h of treatment, then analyzed for: total cholesterol (▴), unesterified cholesterol (●), esterified cholesterol (▪) and HDL cholesterol (▾) determined using either enzymatic kits or Lipoprint® for HDL cholesterol (FIG. 16F). […] Radioactivity present in the liver was determined 2 hours later for the HDL or 5 hours later for the LDL. Cholesterol content of feces from treated animals (100 μg/kg) was determined by Charge aerosol detection (FIG. 16J). *p<0.05, **p<0.01. […]
smiles,measurement,setting,value
"CN(C)c1ncc(CN2CCC(c3cc(O)nc(N4CCOCC4)n3)CC2)cn1 [Compound IIa, 6-[1-(2-Dimethylaminopyrimidin-5-ylmethyl)-piperidin-4-yl]-2-morpholin-4-yl-pyrimidin-4-ol]",decrease of HDL uptake when cells were treated with doxycycline (P2Y13 knock-down),[1],17.5%
same,liver uptake of labelled HDL as compared to LDL,C57Bl/6J mice,specific stimulation
